Assay results: patent US20130178523A1, “ANTI-CANCER COMPOSITIONS AND METHODS” (THE PENN STATE RESEARCH FOUNDATION, priority 2007, published 2013)

Legend:
UACC 903 cells [1] = test: BrdU ELISA cellular proliferation; assay type: cell-based, human; settings: 24 hours
Protocol: Proliferation rate is measured using a BrdU ELISA kit (Roche Applied Sciences, Indianapolis, Ind.).
BrdUrd is used to label cells for 4-6 hours. At 15 μM concentration, ISC-4 and ISC-6 reduced UACC 903 cellular proliferative potential by ˜80-90% compared to controls. Results represent the average of 3 independent experiments; bars represent SEM. The average value is represented as the percentage of control DMSO treated cells.

UACC 903 cells [2] = test: Apo-ONE caspase-3/7 apoptosis assay; assay type: cell-based, human; settings: 24 hours
Protocol: Apoptosis rates are measured using an Apo-ONE Homogenous caspase-3/7 Assay kit (Promega Corporation, Madison, Wis.).
The isoselenocyanate compounds promote apoptosis in melanoma cells. […] The graphs in FIGS. 3A and 3B show fold increase in caspase-3/7 activity relative to DMSO vehicle treated cells on the x-axis. Results represent average of 3 independent experiments. Bars indicate SEM.

[3] = Toxicity assessments in nude mice (blood parameters, histology); assay type: in vivo
Source text: Animals are sacrificed by CO2 asphyxiation and blood collected from each animal in plasma separator tubes with lithium heparin (BD Microtainer, BD, Franklin Lakes, N.J.) following cardiac puncture and analyzed for AST (aspartate aminotransferase), ALT, (alanyl aminotransferase), alkaline phosphatase, glucose and creatinine to ascertain liver, heart, kidney and pancreas related toxicity. For morphological examination of blood cells, whole blood is collected in microtainer tubes containing K2EDTA (BD Microtainer, BD, Franklin Lakes, N.J.) and RBC, WBC, lymphocytes, monocytes, eosinophils, platelets, total hemoglobin and hematocrit percentage analyzed. Blood is also microscopically examined for segregates, polychromatin bodies, and smudge cells. A portion of liver, heart, kidney, spleen, intestine pancreas and adrenal from each animal is formalin fixed and paraffin-embedded to examine toxicity-related changes in cell or organ morphology by H&E staining.

UACC 903 cells [4] = test: Topical application on melanoma tumor growth in vivo; set-up: species or system mice; settings: topical daily
Protocol: Chemopreventive or chemotherapeutic effect of ISC-4 on cutaneous tumor development is measured by subcutaneous injection of 1 million UACC 903 cells in 0.2 ml of DMEM −10% FBS above both the left and right rib cages of 4- to 6-week old female athymic nude mice using 24 g needles. […] The dimensions of the developing tumors are measured alternate days using calipers and the sizes estimated in cubic millimeters. A minimum of 5 mice per group is used for the topical treatment.
Chemopreventive or chemotherapeutic effect of ISC-4 on cutaneous tumor development is measured by subcutaneous injection of 1 million UACC 903 cells in 0.2 ml of DMEM −10% FBS above both the left and right rib cages of 4- to 6-week old female athymic nude mice using 24 g needles. 24 hours later, animals were treated daily with ISC-4 (12.5-50 μM), PBITC (12.5-50 μM), or vehicle control (acetone) for 3-4 weeks. The dimensions of the developing tumors are measured alternate days using calipers and the sizes estimated in cubic millimeters. A minimum of 5 mice per group was used for the topical treatment.

T-98-G = test: MTS assay, glioblastoma cells; settings: Homo sapiens, T98G, 24 h
HT-1080 = test: MTS assay, fibrosarcoma cells; settings: Homo sapiens, HT-1080, 24 h
Caco-2 = test: MTS assay, colon cancer cells; settings: Homo sapiens, Caco-2, 24 h
MDA-MB-231 = test: MTS assay, breast cancer cells; settings: Homo sapiens, MDA-MB-231, 24 h
WM115 melanoma cells = test: MTS cell viability assay, WM115; settings: Homo sapiens, WM-115, 24 h
PC-3 = test: MTS assay, prostate cancer cells; settings: Homo sapiens, PC-3, 24 h
1205 Lu melanoma cells = test: MTS cell viability assay, 1205 Lu; settings: Homo sapiens, 24 h
[5] = system: normal human fibroblasts (FF2441); test: IC50 in normal human fibroblasts
UACC 903 melanoma cells [6] = test: MTS cell viability assay, UACC 903; settings: Homo sapiens, UACC-903, 24 h
[7] = system: pAkt and downstream pPRAS40 in UACC 903 tumors; test: Western blot analysis of excised tumors; settings: day 13, 0.76 μmoles i.p. alternate days, versus DMSO or PBITC
[8] = system: Akt signaling pathway in melanoma cell line WM115; test: Western blot, Akt signaling pathway in WM115; settings: FIG. 10B
[9] = system: Akt signaling pathway in melanoma cell line 1205 Lu; test: Western blot, Akt signaling pathway in 1205 Lu; settings: FIG. 10A
UACC 903 cells [10] = test: Cell cycle analysis (propidium iodide, FACScan); settings: 24 hours
UACC 903 tumors = test: Proliferation/apoptosis rates in tumors (TUNEL, Ki-67)
[11] = system: GFP tagged UACC 903 human melanoma cells; test: Topical application on reconstructed human skin with melanoma cells; settings: 12.5 and 25 μM topical; compared to DMSO treated or untreated skins
UACC 903 melanoma cells [12] = test: Tumor development in nude mice, subcutaneous UACC 903, i.p. treatment; settings: 0.76 μmoles (3 ppm selenium) i.p. thrice per week; day 24; doses 3× lower than isothiocyanates
Akt signaling pathway = test: Western blot of Akt signaling pathway in cultured melanoma cells (FIG. 9); settings: 24 hours

## [Se]=C=NCCCCc1ccccc1 [ISC-4, Phenylbutyl Isoselenocyanate]
UACC 903 cells [1]; 5, 10, 15 μM
  proliferative potential with increasing concentrations: decreased proliferative potential
UACC 903 cells [1]; 5-15 μM
  fold more effective than PBITC or PHITC at inhibiting cellular proliferation: ~2 fold
UACC 903 cells [2]; 5, 10, 15 μM
  cellular apoptosis with increasing concentrations (caspase-3/7 activity, words): increase cellular apoptosis
UACC 903 cells [2]; caspase-3/7 activity, 5-15 μM
  fold more effective than PBITC at inducing apoptosis: ~2 fold
[3]; 0.76 μmoles i.p. 3 times per week for 3 weeks, compared to vehicle DMSO
  blood SGOT, SGPT, alkaline phosphatase, glucose and creatinine: did not alter parameters
[3]; hematoxylin and eosin stained, including the liver
  histological examination of vital organ sections: did not significantly change cell morphology or organ structure
[3]; treated versus control animals
  basal urea nitrogen (BUN), creatinine and glucose levels: not significantly different
UACC 903 cells [4]; 0.063-0.19 μmoles equivalent to 0.25-0.75 ppm
  systemic toxicity by body weight: no systemic toxicity
UACC 903 cells [4]; 0.063-0.19 μmoles equivalent to 0.25-0.75 ppm, versus vehicle or PBITC
  tumor size: decreased tumor size
UACC 903 cells [4]; 12.5-50 μM
  systemic toxicity by body weight: no systemic toxicity
UACC 903 cells [4]; 12.5-50 μM, compared to PBITC or vehicle control
  reduction of melanoma tumor development: ~50%
T-98-G
  IC50: 27 ± 1 µM
HT-1080
  IC50: 11 ± 1 µM
Caco-2
  IC50: 12 ± 3 µM
MDA-MB-231
  IC50: 21 µM
WM115 melanoma cells
  IC50: 7 µM
PC-3
  IC50: 19 ± 1 µM
1205 Lu melanoma cells
  IC50: 11 µM
[5]; 24 hours
  fold greater sensitivity of melanoma cells (UACC 903) than normal fibroblasts (FF2441): 3 fold
[5]; Homo sapiens, FF2441, 24 h, read-out: IC50 (drug concentration required to kill fibroblasts)
  IC50: 37.5 µM
UACC 903 melanoma cells [6]
  IC50: 12 ± 3 µM
[7]; p<0.001
  expression of downstream PRAS40 (phosphorylated) in tumor lysates: significantly decreased expression
[7]; p<0.05
  expression of phosphorylated (active) Akt in tumor lysates: significantly decreased expression
[8]
  apoptosis indicated by cleaved PARP protein levels: causes significant apoptosis
[9]
  apoptosis indicated by cleaved PARP protein levels: causes significant apoptosis
UACC 903 cells [10]; 5 μM
  G0/G1 cell population: 59.4
  G2/M cell population: 16.3
  S cell population: 24.3
  subG0/G1 cell population: 2.9
UACC 903 cells [10]; 10 μM
  G0/G1 cell population: 41.6
  G2/M cell population: 29.4
  S cell population: 29.0
  subG0/G1 cell population: 12.3
UACC 903 cells [10]; 15 μM
  G0/G1 cell population: 35.5
  G2/M cell population: 28.0
  S cell population: 36.5
  subG0/G1 cell population: 22.8
UACC 903 tumors; compared to PBITC, size and time matched tumors
  proliferating tumor cells (Ki-67, words): slightly fewer proliferating tumor cells
UACC 903 tumors; tumors harvested at day 11 and 13, 3 ppm selenium i.p.
  TUNEL positive (apoptotic) cells in tumors, fold versus DMSO or PBITC: ~3 fold
[11]
  decrease in tumor area occupied by melanoma cells: ~80%
UACC 903 melanoma cells [12]
  melanoma tumor volume: reduce tumor volume
Akt signaling pathway
  concentration completely inhibiting the Akt3 pathway (Western blot): 10 µM
  level of apoptosis (cleaved PARP) versus PBITC: higher level of apoptosis
